Some test systems named below: 786-0; HCC 2998; HL-60; HOP-62; HT-29; Malme-3M; OVCAR-4; SF-268; SF-295; SK-OV-3; SN12C; SNB-75; SR; TK-10; U-251; UO-31.
What all share (assay): NCI-60 cell line screen, 48 h

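96-well plates; 48 h exposure; 5 concentrations. Endpoints by linear interpolation between flanking doses. Not reached: highest tested concentration assigned. Here, GI50 denotes the concentration required for 50% inhibition of growth.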 Activity calls are given as the source filed them. No stated cut-off is given here; in the data, active = GI50 up to about 1.1 µM and inactive = higher.

As to `COc1ccc2cccc(C(=O)c3ccc(C)c4c3CCC4)c2c1`, the GI50 in the assay with 786-0 was 24.8 µM (inactive); in the assay on HCC 2998, 19.6 µM (inactive); with HL-60 it was 14.6 µM (inactive); in the assay on HOP-62, 24.9 µM (inactive); in the assay with HT-29, 33 µM (inactive); in the assay with Malme-3M, 29.2 µM (inactive). The GI50 in the assay on OVCAR-4 was 85.5 µM (inactive); with SF-268 it was > 100 µM (inactive); in the assay on SF-295, 53.6 µM (inactive); in the assay on SK-OV-3, 64.3 µM (inactive); in the assay on SN12C it was 71.9 µM (inactive); with SNB-75 it was > 100 µM (inactive). Further, the GI50 with SR was 23.6 µM (inactive); in the assay on TK-10 it was 32.3 µM (inactive); with U-251, 53.7 µM (inactive); with UO-31, 30.2 µM (inactive).

`C=CCN(CC=C)CC(C(C)=O)C(c1ccccc1)c1c(O)c2ccccc2oc1=O` (stereo unspecified): the GI50 with 786-0, in the assay with HCC 2998, in the assay on HL-60, with HOP-62, in the assay on HT-29 and with Malme-3M was > 100 µM (inactive) each time. For the same molecule, the GI50 was > 100 µM (inactive) in the assay with OVCAR-4; > 100 µM (inactive) with SF-268; 30.5 µM (inactive) in the assay on SF-295; > 100 µM (inactive) with SK-OV-3; > 100 µM (inactive) with SN12C; 39.6 µM (inactive) in the assay on SNB-75. Besides, the GI50 is > 100 µM (inactive) in the assay with SR, > 100 µM (inactive) in the assay on TK-10, > 100 µM (inactive) in the assay on U-251 and 18.2 µM (inactive) in the assay with UO-31.

On to `CCN(CC)CCCNc1nccc2c(C)c3[nH]c4ccncc4c(=O)c3cc12`, for which the GI50 is 0.977 µM (active) in the assay on 786-0; 2.37 µM (inactive) with HCC 2998; 2.79 µM (inactive) in the assay with HL-60; 3.11 µM (inactive) in the assay with HOP-62; 1.32 µM (inactive) in the assay with HT-29; 3.83 µM (inactive) with Malme-3M. Further, the GI50 was 0.604 µM (active) in the assay on OVCAR-4; 0.643 µM (active) in the assay on SF-268; 3.64 µM (inactive) in the assay with SF-295; 3.77 µM (inactive) with SK-OV-3; 1.5 µM (inactive) in the assay on SN12C; 2.24 µM (inactive) with SNB-75. For the same molecule, the GI50 with SR was 0.13 µM (active); with TK-10, 3.18 µM (inactive); in the assay with U-251, 2.19 µM (inactive); in the assay with UO-31, 9.79 µM (inactive).

As for `COc1ccc(CN2C(=O)C(Cc3cc(OC)c(OC)c(C)c3OC)NC(=O)/C2=C/c2cc(OC)c(OC)c(C)c2OC)cc1` (stereo unspecified), the GI50 in the assay with 786-0 is 48.4 µM (inactive); with HCC 2998 it was 23.6 µM (inactive); in the assay on HL-60, 18.3 µM (inactive); in the assay on HOP-62, 50.9 µM (inactive); in the assay with HT-29, 24.2 µM (inactive); in the assay with Malme-3M, 22.6 µM (inactive). In addition, the GI50 is 30.6 µM (inactive) with OVCAR-4; 51.6 µM (inactive) in the assay on SF-268; 43.5 µM (inactive) with SF-295; 34 µM (inactive) in the assay with SK-OV-3; 27.5 µM (inactive) with SN12C; 33.5 µM (inactive) with SNB-75. Further, the GI50 in the assay on SR is 20.3 µM (inactive); with TK-10 it was 33.5 µM (inactive); in the assay on U-251 it was 37.2 µM (inactive); with UO-31, 23.4 µM (inactive).

As to `O=C1c2cccc3cccc(c23)C(=O)N1CCN(CCO)CCO`, the GI50 in the assay on 786-0 is 40.6 µM (inactive); with HCC 2998, 26.2 µM (inactive); in the assay with HL-60, > 100 µM (inactive); in the assay on HOP-62, 31.7 µM (inactive); with HT-29, 27.9 µM (inactive); in the assay on Malme-3M, 21.2 µM (inactive). Besides, the GI50 in the assay with OVCAR-4 is 25.5 µM (inactive); with SF-268, 35.6 µM (inactive); with SF-295, 47.4 µM (inactive); with SK-OV-3, 55.1 µM (inactive); with SN12C, 25.4 µM (inactive); in the assay with SNB-75 it was 30.1 µM (inactive). For the same molecule, the GI50 in the assay with SR was 11.3 µM (inactive); in the assay with TK-10, 17.5 µM (inactive); in the assay on U-251 it was 32.4 µM (inactive); in the assay on UO-31, 30.5 µM (inactive).

With `CNC(=O)OCc1nccc2c(C)c3[nH]c4ccc(OC)cc4c3cc12`, the GI50 in the assay on 786-0 was 3.78 µM (inactive); with HCC 2998 it was 5.57 µM (inactive); in the assay on HL-60, 2.58 µM (inactive); with HOP-62, 3.69 µM (inactive); in the assay with HT-29, 2.54 µM (inactive); in the assay on Malme-3M, 7.98 µM (inactive). For the same molecule, the GI50 was 8.11 µM (inactive) in the assay on OVCAR-4; 10.5 µM (inactive) in the assay with SF-268; 8.75 µM (inactive) with SF-295; 10.7 µM (inactive) in the assay with SK-OV-3; 19.1 µM (inactive) in the assay on SN12C; 7.82 µM (inactive) in the assay on SNB-75. For the same molecule, the GI50 is 0.218 µM (active) in the assay on SR, 19.3 µM (inactive) in the assay with TK-10, 5.12 µM (inactive) with U-251 and 3.35 µM (inactive) in the assay on UO-31.

As to `Brc1cc2c(cc1C1SCCS1)OCO2`, the GI50 with 786-0 was > 100 µM (inactive); in the assay on HCC 2998, > 100 µM (inactive); with HL-60, 96.4 µM (inactive); in the assay with HOP-62, > 100 µM (inactive); in the assay on HT-29 it was > 100 µM (inactive); with Malme-3M, > 100 µM (inactive). Further, the GI50 in the assay on OVCAR-4, in the assay with SF-268, with SF-295, in the assay on SK-OV-3, in the assay on SNB-75 and in the assay with SR was > 100 µM (inactive) each time. The GI50 in the assay with TK-10, in the assay with U-251 and with UO-31 was > 100 µM (inactive) each time.

As for `N#Cc1c2c(c(Cl)n3c1nc1ccccc13)CCCC2`, the GI50 with 786-0 was 1.77 µM (inactive); with HCC 2998, 16.4 µM (inactive); with HL-60, 1.66 µM (inactive); in the assay on HOP-62, > 10 µM (inactive); in the assay on HT-29 it was 1.11 µM (active); in the assay with Malme-3M it was 13.2 µM (inactive). In addition, the GI50 in the assay with OVCAR-4 is 4.35 µM (inactive); in the assay on SF-268 it was 2.58 µM (inactive); in the assay with SF-295, 4.83 µM (inactive); in the assay on SK-OV-3, 2.48 µM (inactive); in the assay on SN12C, 2.09 µM (inactive); in the assay with SNB-75, 17.2 µM (inactive). The GI50 in the assay on SR was 2.38 µM (inactive); with TK-10, 2.53 µM (inactive); in the assay on U-251, 3.65 µM (inactive); with UO-31 it was 3.06 µM (inactive).

Take `CCc1cccc(=O)c([O-])c1.CCc1cccc(=O)c([O-])c1.[Bi+3].[Cl-]`: the GI50 is 9.1 µM (inactive) with 786-0; 5.93 µM (inactive) with HCC 2998; 2.54 µM (inactive) in the assay with HL-60; 11.6 µM (inactive) in the assay on HOP-62; 4.31 µM (inactive) with HT-29; 1.79 µM (inactive) in the assay with Malme-3M. For the same molecule, the GI50 in the assay with OVCAR-4 is 13.6 µM (inactive); in the assay on SF-268, 5.21 µM (inactive); with SF-295, 6.31 µM (inactive); in the assay on SK-OV-3, 21.4 µM (inactive); in the assay with SN12C, 10.2 µM (inactive); in the assay with SNB-75, 17.6 µM (inactive). Further, the GI50 in the assay with SR is 3.71 µM (inactive); with TK-10, 4.42 µM (inactive); in the assay on U-251, 6.46 µM (inactive); with UO-31, 10 µM (inactive).

As for `Nn1c(=O)n(Cc2ccccc2)n(-c2ccccc2)c1=O`, the GI50 in the assay on 786-0, in the assay with HCC 2998, in the assay with HL-60, with HOP-62, in the assay with HT-29 and with Malme-3M was > 100 µM (inactive) throughout. The GI50 was > 100 µM (inactive) in the assay with OVCAR-4; > 100 µM (inactive) with SF-268; > 100 µM (inactive) in the assay on SF-295; > 100 µM (inactive) in the assay with SK-OV-3; > 100 µM (inactive) in the assay on SN12C; 74.1 µM (inactive) in the assay with SNB-75. The GI50 in the assay on SR, in the assay with TK-10, with U-251 and with UO-31 was > 100 µM (inactive) each time.

For the molecule `NC1=NC(=O)/C(=C/c2ccccc2[N+](=O)[O-])C(N)=N1`, the GI50 in the assay on 786-0, with HCC 2998, in the assay with HL-60, in the assay on HOP-62, with HT-29 and in the assay with Malme-3M was > 100 µM (inactive) each time. The GI50 in the assay on OVCAR-4, in the assay on SF-295, with SK-OV-3, with SN12C, in the assay with SNB-75 and in the assay on SR was > 100 µM (inactive) in each case. Also, the GI50 in the assay on TK-10, in the assay with U-251 and in the assay with UO-31 was > 100 µM (inactive) throughout.

With `CCOC(=O)C(=O)Nc1ccccc1C(C)C`, the GI50 in the assay on 786-0, in the assay on HCC 2998, in the assay on HL-60, in the assay with HOP-62, in the assay with HT-29 and in the assay with Malme-3M was > 100 µM (inactive) throughout. Besides, the GI50 in the assay on OVCAR-4, in the assay on SF-268, in the assay with SF-295, in the assay with SK-OV-3, in the assay on SN12C and with SNB-75 was > 100 µM (inactive) each time. In addition, the GI50 with SR, with TK-10, in the assay on U-251 and with UO-31 was > 100 µM (inactive) in each case.

As for `Cc1ccccc1NC(=O)/C(=N/NC(=O)CC#N)C1C(=O)N(c2ccccc2)N=C1N` (stereo unspecified), the GI50 in the assay with 786-0 was > 100 µM (inactive); with HCC 2998, > 100 µM (inactive); in the assay with HL-60, 37.9 µM (inactive); with HOP-62, > 100 µM (inactive); with HT-29, > 100 µM (inactive); in the assay with Malme-3M, > 100 µM (inactive). Moreover, the GI50 with OVCAR-4, with SF-268, in the assay with SF-295, in the assay with SK-OV-3, with SN12C and with SNB-75 was > 100 µM (inactive) in each case. For the same molecule, the GI50 is 52.1 µM (inactive) in the assay on SR, > 100 µM (inactive) in the assay with TK-10, > 100 µM (inactive) in the assay with U-251 and > 100 µM (inactive) with UO-31.

(Values after ChEMBL document CHEMBL1201862, “PubChem BioAssay data set” (2004).)
